Reference: article PMC3465485 (Antiviral research, 2012)
Entries after “also recorded” stand apart in the source; their conditions may differ. Read-outs that look alike come from different tables or passages of the source.

Key:
[1] = system: influenza A/MS-H275Y virus; design: species or system BALB/c mice; settings: mouse, in vivo
[2] = system: Influenza A/Mississippi/03/2001 (H1N1) H275Y (A/MS-H275Y) virus
[3] = system: A/Hong Kong/2369/2009 (H1N1) H275Y (A/HK-H275Y) virus
[4] = system: influenza A/HK-H275Y virus neuraminidase; settings: NA-Star assay, ref Nguyen et al., 2010a; cited from earlier work
[5] = molecular target: A/MS-H275Y neuraminidase (Influenza A virus (A/Mississippi/03/2001(H1N1)), UniProt C7FPR5, H275Y); type: biochemical
[6] = molecular target: A/HK-H275Y neuraminidase (Influenza A virus (A/Hong Kong/2369/2009(H1N1)), UniProt C6KQ69); assay: biochemical
[7] = system: influenza A/HK-H275Y virus; design: species or system BALB/c mice; settings: mouse, in vivo
[8] = system: influenza A/WSN/33 (H1N1) H275Y virus; settings: A/WSN/33 (H1N1) H275Y in mice, up to 10 mg/kg/day; ref Baz et al. (2009); cited from earlier work
[9] = read-out: EC50 (50% virus-inhibitory concentration)

Compound | survival effect (in words) [1] | EC50 [2, 9] | EC50 [3] | antiviral activity in cell culture (in words) [3] | IC50 [4] | sensitivity of the viral neuraminidases (in words) [5] | antiviral activity in cell culture (in words) [2] | other results
NC12CC3CC(CC(C3)C1)C2 [Amantadine] | No significant effect | 0.3 ± 0.05 µM | > 100 µM | not active |  |  |  | survival effect (in words) ([1]; po, 3 mg/kg/day): no effect; protection from death ([1]; po, 30 mg/kg/day): 60%; protection from death ([1]; po, 100 mg/kg/day): 100%; protective activity ([1]; po, 100 mg/kg/day): 100%
Peramivir |  | 8.1 ± 5.2 µM | 7.9 ± 3 µM | decreased sensitivity | 9.2 µM | resistant | decreased sensitivity | IC50 [5]: 38 ± 1 nM; IC50 [6]: 29 ± 2.3 nM; SI (CC50/EC50) [2]: >12; EC50 ([2]; read-out: inhibitory concentration against the H275Y viruses in cell culture): ~8 µM; SI (CC50/EC50) [3]: >12
NC(=O)c1ncn([C@@H]2O[C@H](CO)[C@@H](O)[C@H]2O)n1 [Ribavirin] | not effective | 25 ± 4.6 µM | 33 ± 13 µM |  |  |  |  | lung virus titer versus placebo (in words) ([7]; po): significantly reduced virus titers; also recorded: not significantly lower than placebo; body weight change (in words) ([7]; po, 75 mg/kg/day): Weight decline was least severe; day of infection after which weight gain started ([7]; po, 75 mg/kg/day): > 8 days; survival effect (in words) ([7]; po, 75 mg/kg/day): fully protective
CC(=O)N[C@H]1[C@H]([C@H](O)[C@H](O)CO)OC(C(=O)O)=C[C@@H]1N=C(N)N [Zanamivir] | ineffective; also recorded: delayed the time to death significantly but did little to prevent mortality | 0.24 ± 0.08 µM | 0.36 ± 0.58 µM | highly sensitive | 0.43 µM | sensitive | highly sensitive | IC50 ([6]; IC50): 0.9 ± 0.2 nM
CCC(CC)O[C@@H]1C=C(C(=O)O)C[C@H](N)[C@H]1NC(C)=O [Oseltamivir Carboxylate, Oseltamivir carboxylate] |  | > 100 µM | > 100 µM |  | 78 µM | resistant |  | IC50 ([6]; IC50): > 100 nM
CC(N)C12CC3CC(CC(C3)C1)C2 (stereo not shown) [Rimantadine] | no significant effect | 0.01 ± 0.003 µM | > 22 µM | not active |  |  |  | SI (CC50/EC50) [2]: 2200; SI (CC50/EC50) [3]: 0
CCOC(=O)C1=C[C@@H](OC(CC)CC)[C@H](NC(C)=O)[C@@H](N)C1 [Oseltamivir, Oseltamivir phosphate] | not active |  |  | resistant |  |  | resistant | efficacy in treating the infection (in words) [8]: ineffective; mortality rate [8]: 75%; protection [1]: up to 60%; survival effect (in words) ([1]; po): ineffective; benefit (in words) ([1]; po, 25 mg/kg/day): no benefit; survival (protection from death) ([1]; po, 100 mg/kg/day): 30%; survival (protection from death) ([1]; po, 300 mg/kg/day): 60%; body weight change (in words) [7]: did not fall as rapidly as in the lower dosage and placebo groups; day of infection after which body weights began to increase [7]: > 10 days; survival effect (in words) [7]: not significantly effective; benefit (in words) ([7]; po, 25 mg/kg/day): no benefit; survival (protection from death) ([7]; po, 100 mg/kg/day): 50%; survival (protection from death) ([7]; po, 300 mg/kg/day): 70%
